SMILES strings stand for the structures. Like-named read-outs stand apart in the source and are kept apart here. Where only a bound is given, the exact number is not on record here.

Results on 2 compounds are retold here after patent US20260137698A1, “CYCLIN-DEPENDENT KINASE 7 INHIBITORS” (JOINT STOCK COMPANY «BIOCAD», priority 2022, published 2026).

Data set [1] concerns NCl-H82 (small cell lung cancer). Nature of the data set: Antiproliferative assay on NCl-H82 cells (AlamarBlue, 120 h). In kind it is cell-based. The following applies: mean value from several measurements. On the technique in general: The colour change of resazurin is a common sign of viable cells or microbes.
A further data set concerns the target CDK7/Cyclin H/MNAT1 (Homo sapiens, UniProt P50613). Nature of the data set: Inhibition of CDK7/Cyclin H/MNAT1 kinase activity (ADP-Glo). In kind it is biochemical. The gist of the method: (§1)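 Kinase preincubated with compound (11 points, 4-fold steps from 50 μM) for 10 minutes at 25° C. in kinase buffer A with DTT, then reacted 40-60 minutes at 25° C. with ATP and CDKtide, Histone H1 or PDKtide substrate. ADP formation read by ADP-Glo luminescence; IC50 from four-parameter fit.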
For orientation: In ADP-Glo the light output rises with the ADP produced.

Data set [2] can be described thus: Passive membrane permeability through PAMPA artificial membrane, pH 7.4. It counts as in vitro ADME. Particulars: pH 7.4, 10 μmol, 20 hours at room temperature, mean of multiple measurements, read-out: PAMPA passive permeability Pe. The gist of the method: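 Compound at 10 μmol in 0.01 M phosphate buffer pH 7.4 placed in donor wells over lecithin-phospholipid-impregnated PVDF filter, buffer in acceptor; 20 h at room temperature. Donor and acceptor levels measured by RP-HPLC-UV; Pe (cm/s) and membrane retention R (%) calculated.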

The target in another data set is CDK9/Cyclin K (Homo sapiens, UniProt P50750). Nature of the data set: Inhibition of CDK9/Cyclin K kinase activity (ADP-Glo). It counts as biochemical. The gist of the method: as §1
Data set [3] in a line: General cytotoxicity on primary differentiated HepaRG cells (72 h). The following applies: human, general toxicity, mean value from several measurements. It counts as cell-based. Summed up:
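Differentiated HepaRG cells, maintained a week in basal hepatic medium with maintenance/metabolism supplement, were plated at 25×10^3 cells/well overnight. Compounds (200 μM to 0.2 nM) were added for 72 h before viability readout.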

Data set [4] has as its system MDA-MB-468 (triple negative breast cancer). Nature of the data set: Antiproliferative assay on MDA-MB-468 cells (AlamarBlue, 96 h). In kind it is cell-based. The following applies: Homo sapiens, mean value from several measurements.
The next data set concerns the target CDK2/Cyclin A (Homo sapiens, UniProt P24941). Nature of the data set: Inhibition of CDK2/Cyclin A kinase activity (ADP-Glo). It counts as biochemical. Summed up:
as §1

For the next data set, the target named is CDK13/Cyclin K (Homo sapiens, UniProt Q14004). Nature of the data set: Inhibition of CDK13/Cyclin K kinase activity (ADP-Glo). In kind it is biochemical. How it is done: Measurements were carried out in a 5 μl reaction volume using a 384-well plate (Corning Inc., order no. 4513). The analyzed substances were titrated from 50 μM in increments of 4 at 11 concentration points in a normal strength kinase buffer A (Thermo Fisher Scientific Inc, cat. no. PV3189) supplemented with DTT (Sigma, orde. no. 646563-10X.5ML) and prepared with water (Panreac, order no. 701074). Kinase was diluted in an analogous buffer, mixed with test compounds in plate wells and preincubated for 10 minutes at 25° C. Following incubation, a mixture of reaction substrate (CDKtide (SignalChem, order no. C06-58) or Histone H1 (SignalChem, order no. H10-54N) or PDKtide (SignalChem, order no. P10-58) and ATP (SignalChem, order no. V915B) prepared on a normal strength kinase buffer A was added. 1% solution of dimethyl sulfoxide (DMSO) (Sigma-Aldrich, order no. D2438) in the reaction volume was used as a negative control. The final concentrations of all reaction components are shown in Table 5. The plate was centrifuged at 400 rcf (Eppendorf, 5804 R) for 1 minute and incubated for 40-60 minutes at 25° C. The amount of ATP consumed in the kinase reaction was then measured using the ADP-Glo™ detection system. Luminescence signal was measured using Spark 20M tablet multifunction reader (Tecan Group Ltd, Switzerland). IC50 value was calculated using Magellan 7.2 (Tecan Group Ltd, Switzerland) by approximating experimental points by four-parameter model with the optimization by Levenberg-Marquardt:
[formula] • where A is the upper asymptote; D is the lower asymptote; C is IC50, half-maximal inhibitory concentration of kinase, nM; B is the curvature (slope).

The mark [5] stands for this setting: mean value from several measurements, read-out: IC50 CDK7/Cyclin H/MNAT.
Where [6] appears, read: mean value from several measurements, read-out: IC50 CDK9/Cyclin K.
Where [7] appears, read: mean value from several measurements, read-out: IC50 CDK2/Cyclin A.
[8] abbreviates: mean value from several measurements, read-out: IC50 CDK13/Cyclin K.

Chain of CDK9/Cyclin K (P50750 whole entry): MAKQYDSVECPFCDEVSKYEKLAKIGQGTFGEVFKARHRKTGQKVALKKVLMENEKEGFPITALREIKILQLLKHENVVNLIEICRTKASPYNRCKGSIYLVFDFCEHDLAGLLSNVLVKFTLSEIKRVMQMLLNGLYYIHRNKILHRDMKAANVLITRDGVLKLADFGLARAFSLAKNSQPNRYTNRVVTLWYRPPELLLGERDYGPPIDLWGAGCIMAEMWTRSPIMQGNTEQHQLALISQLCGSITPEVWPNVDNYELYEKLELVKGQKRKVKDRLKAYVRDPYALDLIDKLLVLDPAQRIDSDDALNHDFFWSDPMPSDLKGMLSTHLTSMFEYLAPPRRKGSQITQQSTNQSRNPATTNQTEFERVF
Chain of CDK9/Cyclin K (O75909 whole entry partner): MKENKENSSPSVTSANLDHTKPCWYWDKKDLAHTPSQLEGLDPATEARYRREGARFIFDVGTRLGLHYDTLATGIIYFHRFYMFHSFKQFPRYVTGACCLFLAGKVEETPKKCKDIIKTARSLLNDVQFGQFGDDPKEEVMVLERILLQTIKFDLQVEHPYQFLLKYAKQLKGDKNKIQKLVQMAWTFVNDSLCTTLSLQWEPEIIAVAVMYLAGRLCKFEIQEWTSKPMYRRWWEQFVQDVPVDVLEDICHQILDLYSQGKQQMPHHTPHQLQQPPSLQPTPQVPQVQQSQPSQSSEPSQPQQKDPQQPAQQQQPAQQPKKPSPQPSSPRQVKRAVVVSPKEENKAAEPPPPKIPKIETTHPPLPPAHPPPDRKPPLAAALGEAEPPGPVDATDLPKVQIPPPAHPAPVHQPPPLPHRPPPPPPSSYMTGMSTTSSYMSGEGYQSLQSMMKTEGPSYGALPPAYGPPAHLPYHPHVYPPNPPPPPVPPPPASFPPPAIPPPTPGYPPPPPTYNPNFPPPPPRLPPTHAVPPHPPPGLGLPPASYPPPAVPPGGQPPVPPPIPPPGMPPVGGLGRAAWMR
Chain of CDK7/Cyclin H/MNAT1 (P50613 whole entry): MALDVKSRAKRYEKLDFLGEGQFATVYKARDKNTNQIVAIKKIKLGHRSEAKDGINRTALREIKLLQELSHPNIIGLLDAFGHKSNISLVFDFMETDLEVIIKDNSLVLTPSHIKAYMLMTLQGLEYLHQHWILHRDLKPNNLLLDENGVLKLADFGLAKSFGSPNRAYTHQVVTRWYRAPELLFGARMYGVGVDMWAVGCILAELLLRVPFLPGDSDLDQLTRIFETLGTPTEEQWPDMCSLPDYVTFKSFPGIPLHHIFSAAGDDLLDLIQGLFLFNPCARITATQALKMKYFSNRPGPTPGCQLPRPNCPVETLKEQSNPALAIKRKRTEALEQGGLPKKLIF
Chain of CDK7/Cyclin H/MNAT1 (P51946 whole entry partner): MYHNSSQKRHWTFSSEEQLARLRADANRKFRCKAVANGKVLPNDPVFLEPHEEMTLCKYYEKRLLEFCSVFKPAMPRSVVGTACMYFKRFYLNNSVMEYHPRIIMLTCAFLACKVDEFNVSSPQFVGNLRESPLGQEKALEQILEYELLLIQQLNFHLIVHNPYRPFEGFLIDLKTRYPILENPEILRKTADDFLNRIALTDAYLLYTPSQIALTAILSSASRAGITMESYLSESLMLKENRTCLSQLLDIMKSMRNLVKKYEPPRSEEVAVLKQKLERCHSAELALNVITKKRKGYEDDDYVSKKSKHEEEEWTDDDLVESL
Chain of CDK7/Cyclin H/MNAT1 (P51948 whole entry partner): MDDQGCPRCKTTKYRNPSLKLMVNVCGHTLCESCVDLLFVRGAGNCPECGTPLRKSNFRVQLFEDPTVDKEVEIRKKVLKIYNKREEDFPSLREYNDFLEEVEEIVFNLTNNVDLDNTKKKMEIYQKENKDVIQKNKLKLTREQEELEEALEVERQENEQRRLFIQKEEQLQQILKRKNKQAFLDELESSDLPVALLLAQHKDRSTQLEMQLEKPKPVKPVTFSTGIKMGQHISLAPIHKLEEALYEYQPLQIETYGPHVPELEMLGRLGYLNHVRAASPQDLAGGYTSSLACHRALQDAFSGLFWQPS
Chain of CDK13/Cyclin K (Q14004 whole entry): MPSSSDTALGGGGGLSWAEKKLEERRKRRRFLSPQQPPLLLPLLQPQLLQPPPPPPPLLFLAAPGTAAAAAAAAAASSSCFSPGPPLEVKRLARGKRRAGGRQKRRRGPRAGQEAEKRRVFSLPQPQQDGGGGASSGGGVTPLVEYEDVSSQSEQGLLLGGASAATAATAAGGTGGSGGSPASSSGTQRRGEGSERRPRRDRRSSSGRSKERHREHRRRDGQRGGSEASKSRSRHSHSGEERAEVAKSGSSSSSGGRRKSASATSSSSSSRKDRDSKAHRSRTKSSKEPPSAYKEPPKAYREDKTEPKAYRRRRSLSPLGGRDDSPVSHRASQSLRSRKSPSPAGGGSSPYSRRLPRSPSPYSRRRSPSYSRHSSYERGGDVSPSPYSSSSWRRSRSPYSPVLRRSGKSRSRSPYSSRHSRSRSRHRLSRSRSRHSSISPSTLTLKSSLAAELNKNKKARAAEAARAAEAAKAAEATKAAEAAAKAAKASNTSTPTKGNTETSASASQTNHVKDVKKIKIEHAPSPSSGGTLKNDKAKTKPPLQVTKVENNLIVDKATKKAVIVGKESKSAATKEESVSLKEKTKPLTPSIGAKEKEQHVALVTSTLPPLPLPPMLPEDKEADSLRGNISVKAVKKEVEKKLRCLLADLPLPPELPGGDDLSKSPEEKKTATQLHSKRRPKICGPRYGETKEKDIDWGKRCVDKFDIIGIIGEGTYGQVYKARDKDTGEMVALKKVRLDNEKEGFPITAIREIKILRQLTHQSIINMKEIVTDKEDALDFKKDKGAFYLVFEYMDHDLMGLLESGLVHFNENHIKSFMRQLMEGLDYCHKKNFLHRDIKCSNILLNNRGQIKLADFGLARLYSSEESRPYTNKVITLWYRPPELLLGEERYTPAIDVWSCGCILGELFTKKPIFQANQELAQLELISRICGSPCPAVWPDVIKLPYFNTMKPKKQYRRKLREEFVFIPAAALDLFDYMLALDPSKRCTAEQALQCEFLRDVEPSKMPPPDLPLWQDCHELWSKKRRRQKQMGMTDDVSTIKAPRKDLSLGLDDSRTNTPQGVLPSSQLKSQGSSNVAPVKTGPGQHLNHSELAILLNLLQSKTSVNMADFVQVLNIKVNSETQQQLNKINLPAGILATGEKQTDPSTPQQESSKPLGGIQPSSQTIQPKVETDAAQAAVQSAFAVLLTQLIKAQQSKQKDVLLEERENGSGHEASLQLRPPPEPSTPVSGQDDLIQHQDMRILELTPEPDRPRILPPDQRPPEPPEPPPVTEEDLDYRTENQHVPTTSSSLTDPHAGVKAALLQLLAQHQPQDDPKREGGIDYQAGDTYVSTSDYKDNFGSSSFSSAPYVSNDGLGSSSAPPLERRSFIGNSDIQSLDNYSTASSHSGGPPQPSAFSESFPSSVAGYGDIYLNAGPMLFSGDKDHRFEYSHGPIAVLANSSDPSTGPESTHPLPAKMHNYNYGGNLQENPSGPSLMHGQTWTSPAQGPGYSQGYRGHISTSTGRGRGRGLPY
Chain of CDK13/Cyclin K (O75909 whole entry partner): as the sequence (O75909 whole entry partner) above

What is called CC50 is the concentration giving 50% cytotoxicity. Lower therefore signals harm at low concentration. Take `Cn1nnc(-c2cc(-c3nc(N[C@H]4CCCNC4)ncc3C(F)(F)F)c[nH]2)n1` [CDK7_1000, 4-[5-(2-methyl-2H-1,2,3,4-tetrazol-5-yl)-1H-pyrrol-3-yl]-N-[(3S)-piperidin-3-yl]-5-(trifluoromethyl)py-rimidin-2-amine]: the IC50 in data set [1] was 10 to 100 nM; at CDK7/Cyclin H/MNAT1 (setting [5]), less than 5 nM; on CDK9/Cyclin K (setting [6]), 5 to 50 nM; in data set [4], 10 to 100 nM; on CDK2/Cyclin A (setting [7]) it was greater than 200 nM; at CDK13/Cyclin K (setting [8]), 5 to 50 nM. In data set [2], the Papp at 20 h, 10 μmol was less than 1 ×10⁻⁶ cm/s. In addition, the CC50 at 72 h in data set [3] lay in the range of 100 to 500 nM.

As for `CN1CCCc2c(-c3nc(N[C@H]4CCC5(CC5)NC4)ncc3C(F)(F)F)c[nH]c2C1=O` [CDK7_1201, 3-[2-({4-azaspiro[2.5]octan-6-yl}amino)-5-(trifluoromethyl)py-rimidin-4-yl]-7-methyl-1H,4H,5H,6H,7H, 8H-pyrrolo[2,3-c]azepin-8-one], the IC50 in data set [1] was less than 10 nM; at CDK7/Cyclin H/MNAT1 (mean of multiple measurement series, ATP 10 μM, read-out: CDK7/Cyclin H/MNAT1 IC50), less than 5 nM; at CDK7/Cyclin H/MNAT1 (setting [5]), less than 5 nM; at CDK9/Cyclin K (mean of multiple measurement series, ATP 50 μM, read-out: CDK9/Cyclin K IC50) it was 112 nM; at CDK9/Cyclin K (setting [6]) it was 50 to 200 nM; in data set [4], less than 10 nM. In addition, the IC50 at CDK2/Cyclin A (mean of multiple measurement series, ATP 50 μM, read-out: CDK2/Cyclin A IC50) is 4500 nM; at CDK2/Cyclin A (setting [7]), greater than 200 nM; on CDK13/Cyclin K (mean of multiple measurement series, ATP 10 μM, read-out: CDK13/Cyclin K IC50) it was 65 nM; at CDK13/Cyclin K (setting [8]), 50 to 200 nM. In addition, the Papp at 20 h, 10 μmol in data set [2] fell in the range of 5 to 10 ×10⁻⁶ cm/s. For the same compound, in data set [3], the CC50 at 72 h was 500 to 2000 nM.
